According to patent US20030170722A1, “Methods and reagents for regulating apoptosis” (priority 2001, published 2003):

Key:
Assay type in all cases: cell-based
Rat2 fibroblasts [1] = assay: TUNEL analysis of staurosporine-induced apoptosis in Rat2puro / Rat2M11L cells; conditions: 2 μM staurosporine, 5 h
Experimental: Ectopic Expression of M11L. Control pBabePuro and pBabe-PuroM11L vectors were transiently transfected into BOSC 23 cells and packaged into ecotropic virus particles as described (27). After infection of Rat2 fibroblasts, pooled clones of cells that had stably incorporated the respective proviruses were selected on the basis of ability to grow in the presence of 2.5 μg/ml puromycin, and designated Rat2puro and Rat2M11L. Expression of the M11L protein by Rat2M11L cells was verified by immunoblot analysis (data not shown). Transient expression of GFP chimeric proteins for flow cytometry was accomplished by transfecting HeLa cells with GFP plasmid constructs using the Lipofectin Plus reagent (GIBCO BRL) as described (28). Analysis was conducted 24 h after transfection.
Induction and Measurement of Apoptosis. Apoptosis was induced by addition of staurosporine (Sigma Chemical Co.) to the cell culture medium at a final concentration of 2 μM. Apoptotic cells were identified by measuring the characteristic elevation in levels of nicked DNA using the previously described terminal deoxynucleotidyl transferase-mediated dUTP-fluorescein nick end labeling (TUNEL) reaction (19, 29).

Caspase-3 = Caspase-3 activation by SDS-PAGE and immunoblot in Rat2puro / Rat2M11L cells; conditions: 5 μM staurosporine, 4 h
Experimental: Measurement of Caspase-3 Activation. Rat2puro and Rat2-M11L cells (10^6) were incubated with 5 μM staurosporine for up to 4 h. Caspase-3 activation was detected by SDS-PAGE and immunoblot analysis as described (30) using an antibody directed against the large subunit of the active enzyme (provided by Dr. D. Nicholson, MerckFrosst Center for Therapeutic Research, Montreal, Quebec, Canada).

Rat2 fibroblasts [2] = conditions: control cells, CCCP 50 μM
Experimental: Measurement of Mitochondrial Membrane Potential in Cells Expressing M11L Constructs. Rat2puro or Rat2M11L cells were cultured in 12-well plates (5×10^5 cells/well) and treated with 2 μM staurosporine for 4 h. As the staurosporine stock was prepared in DMSO, control cells were treated with an equivalent amount of DMSO alone. Thereafter, the cells were stained with the green fluorescent dye 3,3′dihexyloxacarbocyanine iodide (DiOC6; Molecular Probes). […] Cells were incubated with 0.5 nM DiOC6 at 37° C. for 10 min, harvested with trypsin, and then washed and resuspended in RPMI lacking phenol red (GIBCO BRL). […] CCCP was added to the cell culture medium at a final concentration of 50 μM during and after dye addition. Flow cytometric analysis was conducted using a Becton Dickinson FACSCalibur™ flow cytometer equipped with an argon ion laser with 15 mW of excitation at 488 nm. Data were acquired at 10,000 cells per sample, and the fluorescent signal due to excitation of DiOC6 at 488 nm was detected through the FL1 channel equipped with a 530 nm filter (30 nm band pass). Light scatter signals were acquired at linear gain, and fluorescence signals were acquired at logarithmic gain.

HeLa cells = assay: Mitochondrial membrane potential by TMRE fluorescence in HeLa cells expressing GFP constructs; conditions: CCCP
Experimental: Measurement of Mitochondrial Membrane Potential in Cells Expressing M11L Constructs. […] Flow cytometric analysis was conducted using a Becton Dickinson FACSCalibur™ flow cytometer equipped with an argon ion laser with 15 mW of excitation at 488 nm. […] HeLa cells transiently expressing GFP plasmid constructs were treated with 2.5 μM staurosporine, and control samples were treated with DMSO alone. […] Flow cytometric analysis to detect green fluorescence due to GFP and orange fluorescence due to TMRE was conducted using a FACSCalibur™ instrument specified above. GFP fluorescence was collected after a 530/30-nm band pass filter, and TMRE fluorescence was acquired through a 585/42-nm band pass filter. Electronic fluorescence compensation was set to eliminate any spectral overlap of the emitted signals. Data were acquired at 10,000 cells per sample with fluorescence signals at logarithmic gain. The percentage of GFP-positive cells that were also TMRE-positive was then calculated for each gated cell population.

Row | Molecule | levels of TUNEL-positive (apoptotic) cells (Rat2 fibroblasts [1]) | Caspase-3 activation (32 kD proenzyme reduced, p19 cleavage product) (Caspase-3) | DiOC6 fluorescence (mitochondrial membrane potential) (Rat2 fibroblasts [2]) | TMRE fluorescence (mitochondrial membrane potential) (HeLa cells)
1 | CN[C@@H]1C[C@H]2O[C@@](C)([C@@H]1OC)n1c3ccccc3c3c4c(c5c6ccccc6n2c5c31)C(=O)NC4 [staurosporine] | steady increase in the levels of TUNEL-positive Rat2puro cells | resulted in activation of Caspase-3 |  | 
2 | carbonyl cyanide mchlorophenyl hydrazone [CCCP] |  |  | Fluorescence was diminished | induced a marked loss of TMRE fluorescence
